One experiment has as its target T1, LRRK2 WT enzyme (Homo sapiens, UniProt Q5S007).
T1 construct: purchased Thermo Fisher Scientific PR8604B
Put plainly: LRRK2 wild type kinase inhibition assay (ADP-Glo). Format: biochemical. The method, then: (§1) IC50 experiments were performed for inventive compounds. An exemplary kit to perform this assay includes the Adapta™ Screening Protocol and Assay Conditions by Invitrogen™ (Fisher Scientific™, Catalog No. PV5099).
(§2) All LRRK2 kinase inhibition assays were conducted by using Promega ADP-Glo™ Kinase assay systems (Catalog number; V4475). Inhibitors were tested with 12 concentrations over a 5-fold serial dilution series (50 μM, 10 μM, 2 μM, 400 nM, 80 nM, 16 nM, 3.2 nM, […]) and PF06447475 as positive control. For the LRRK2 wild type (WT) enzyme assay, each inhibitor was mixed with 0.2 μg/μL of substrate (LRRKtide, SignalChem, Richmond, BC, Canada), […] (Invitrogen™, Carlsbad, CA), 24 ng of LRRK2 WT enzyme (Thermo Fisher Scientific, PR8604B) in 384-well plate. For LRRK G2019S, each compound was mixed with 0.2 μg/μL of substrate, […], 16 ng of LRRK2 G2019S enzyme (SignalChem, L10-12GG). All samples were diluted with kinase reaction buffer (40 mmol/L TrisHCl, 10 mmol/L MgCl2, and 0.1 μg/μL BSA (bovine serum albumin)). After 2 hours at 25° C., ADP-Glo™ (Promega, Madison, WI) reagent was added and the samples were incubated at rt for 40 min. Finally, Kinase Detection Reagent was added and the resulting mixtures were allowed to react at rt for 10 min. Luminescence signals were detected using Synergy™ Neo2 microplate reader (Bio-Tek). Compound inhibition curve was fitted using Graphpad Prism 8.0 software.
(ADP-Glo first removes unused ATP, then detects ADP through luciferase.)

The target in another experiment is LRRK2(G2019S) (Homo sapiens, UniProt Q5S007, G2019S). Put plainly: LRRK2 G2019S kinase inhibition assay (ADP-Glo). Format: biochemical. More on the design: purchased SignalChem L10-12GG. The method, then: as §1, §2
Setting [1] is: Table 2, class symbols, read-out: Enzyme activity against LRRK2 WT (IC50).
Setting [2] is: Table 2, class symbols, read-out: Enzyme activity against LRRK2 G2019S (IC50).
The mark [3] stands for this setting: Table 1, read-out: IC50 (nM) LRRK2 wt.
Where [4] appears, read: Table 1, read-out: IC50 (nM) LRRK2 G2019S.

Where two headings read alike, the source gives them in different places. Some results are limits rather than exact numbers.

Broadly, the IC50 is the concentration needed to halve the response being measured.

T1 sequence (Q5S007 970-2527 limits assumed): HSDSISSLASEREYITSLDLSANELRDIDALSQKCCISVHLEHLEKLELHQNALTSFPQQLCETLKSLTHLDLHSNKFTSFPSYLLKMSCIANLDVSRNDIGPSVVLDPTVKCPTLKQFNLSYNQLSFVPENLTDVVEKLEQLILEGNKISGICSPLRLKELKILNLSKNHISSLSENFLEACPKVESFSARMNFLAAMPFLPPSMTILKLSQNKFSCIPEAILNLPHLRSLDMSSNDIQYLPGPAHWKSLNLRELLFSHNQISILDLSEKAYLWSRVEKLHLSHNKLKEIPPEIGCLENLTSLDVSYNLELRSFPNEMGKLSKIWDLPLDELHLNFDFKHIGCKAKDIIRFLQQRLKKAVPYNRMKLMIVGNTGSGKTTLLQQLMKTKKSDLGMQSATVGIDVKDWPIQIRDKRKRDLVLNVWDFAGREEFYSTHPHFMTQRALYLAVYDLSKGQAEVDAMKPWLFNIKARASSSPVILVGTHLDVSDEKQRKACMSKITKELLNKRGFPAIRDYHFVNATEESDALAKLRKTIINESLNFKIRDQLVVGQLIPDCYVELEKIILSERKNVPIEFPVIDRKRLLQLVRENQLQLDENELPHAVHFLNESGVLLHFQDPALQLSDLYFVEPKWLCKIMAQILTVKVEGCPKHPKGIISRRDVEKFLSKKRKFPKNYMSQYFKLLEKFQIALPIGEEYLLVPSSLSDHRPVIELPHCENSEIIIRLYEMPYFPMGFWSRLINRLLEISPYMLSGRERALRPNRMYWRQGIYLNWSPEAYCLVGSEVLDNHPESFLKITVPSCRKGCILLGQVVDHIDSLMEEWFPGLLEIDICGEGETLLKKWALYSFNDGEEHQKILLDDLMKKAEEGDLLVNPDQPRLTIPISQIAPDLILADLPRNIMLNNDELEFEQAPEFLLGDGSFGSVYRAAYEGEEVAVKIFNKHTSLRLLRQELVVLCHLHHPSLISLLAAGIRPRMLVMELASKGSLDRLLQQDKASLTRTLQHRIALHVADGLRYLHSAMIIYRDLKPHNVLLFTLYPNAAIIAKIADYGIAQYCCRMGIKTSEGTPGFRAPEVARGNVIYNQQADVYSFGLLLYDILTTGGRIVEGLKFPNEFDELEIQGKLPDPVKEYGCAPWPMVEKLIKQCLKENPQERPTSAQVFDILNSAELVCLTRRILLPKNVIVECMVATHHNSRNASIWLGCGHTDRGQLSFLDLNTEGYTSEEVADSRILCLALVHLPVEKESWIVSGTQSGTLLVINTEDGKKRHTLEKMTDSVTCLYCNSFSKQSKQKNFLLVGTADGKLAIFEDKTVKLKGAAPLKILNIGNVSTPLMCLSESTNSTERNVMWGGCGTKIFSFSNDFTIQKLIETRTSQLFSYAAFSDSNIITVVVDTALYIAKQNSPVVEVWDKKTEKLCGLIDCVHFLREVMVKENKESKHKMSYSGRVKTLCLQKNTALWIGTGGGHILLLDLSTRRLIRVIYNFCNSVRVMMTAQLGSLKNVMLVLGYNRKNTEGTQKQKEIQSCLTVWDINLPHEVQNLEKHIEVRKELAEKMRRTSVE
Sequence of LRRK2(G2019S) (Q5S007 970-2527 G2019S limits assumed): as the sequence (Q5S007 970-2527 limits assumed) above, with G1050S counted along it

For the compound `F[C@H]1CN(C2COC2)CC[C@@H]1n1cc(-c2cnc3[nH]ccc3c2NC2CCCC2)cn1` [Compound 31, N-cyclopentyl-5-(1-((3S,4S)-3-fluoro-1-(oxetan-3-yl)piperidin-4-yl)-1H-pyrazol-4-yl)-1H-pyrrolo[2,3-b]pyridin-4-amine], the IC50 at LRRK2 WT enzyme (setting [1]) and on LRRK2(G2019S) (setting [2]) was 10 to 100 nM each time.

As to `CNc1c(-c2nn(C)c3ccc(C#N)cc23)cnc2[nH]cc(Cl)c12` [Compound 14, 3-(3-chloro-4-(methylamino)-1H-pyrrolo[2,3-b]pyridin-5-yl)-1-methyl-1H-indazole-5-carbonitrile], the IC50 at LRRK2 WT enzyme (setting [3]) is 95.2 nM; on LRRK2(G2019S) (setting [4]) it was 305 nM.

As to `CNc1c(-c2c3cc(OC)ccc3nn2C)cnc2[nH]cc(Cl)c12` [Compound 16, 3-chloro-5-(5-methoxy-2-methyl-2H-indazol-3-yl)-N-methyl-1H-pyrrolo[2,3-b]pyridin-4-amine], the IC50 at LRRK2 WT enzyme (setting [3]) was 6230 nM; at LRRK2(G2019S) (setting [4]), > 10000 nM.

Take `CNc1c(-c2cn(C3CCOCC3)nc2C2CC2)cnc2[nH]cc(Cl)c12` [Compound 13, 3-chloro-5-(3-cyclopropyl-1-(tetrahydro-2H-pyran-4-yl)-1H-pyrazol-4-yl)-N-methyl-1H-pyrrolo[2,3-b]pyridin-4-amine]: the IC50 at LRRK2 WT enzyme (setting [3]) was 3600 nM; on LRRK2(G2019S) (setting [4]), > 10000 nM.

For the compound `CNc1c(-c2cnn(C3CCN(C)CC3)c2)cnc2[nH]cc(Cl)c12` [Compound 5, 3-chloro-N-methyl-5-(1-(1-methylpiperidin-4-yl)-1H-pyrazol-4-yl)-1H-pyrrolo[2,3-b]pyridin-4-amine], the concentration for half-maximal inhibition (IC50) at LRRK2 WT enzyme (setting [3]) came out at 22 nM; at LRRK2(G2019S) (setting [4]), 20 nM.

Turning to `CCc1cc(-c2cnc3[nH]cc(Cl)c3c2NC)nn1C` [Compound 9, 3-chloro-5-(5-ethyl-1-methyl-1H-pyrazol-3-yl)-N-methyl-1H-pyrrolo[2,3-b]pyridin-4-amine], the IC50 at LRRK2 WT enzyme (setting [3]) was found to be 36.6 nM; at LRRK2(G2019S) (setting [4]), 83.1 nM.

Turning to `CCNc1c(-c2ccc(C(=O)N3CCOCC3)cc2)cnc2[nH]cc(Cl)c12` [Compound 91, (4-(3-chloro-4-(ethylamino)-1H-pyrrolo[2,3-b]pyridin-5-yl)phenyl)(morpholino)methanone], the IC50 at LRRK2 WT enzyme (setting [1]) and at LRRK2(G2019S) (setting [2]) was 10 to 100 nM throughout.

For `CCNc1c(-c2ccc(C(=O)N3CCC(N4CCOCC4)CC3)cc2)cnc2[nH]cc(Cl)c12` [Compound 97, (4-(3-chloro-4-(ethylamino)-1H-pyrrolo[2,3-b]pyridin-5-yl)phenyl)(4-morpholinopiperidin-1-yl)methanone], the IC50 is < 10 nM on LRRK2 WT enzyme (setting [1]) and 10 to 100 nM at LRRK2(G2019S) (setting [2]).

As to `CNc1c(-c2cnn(C3CCN(C)CC3)c2)cnc2[nH]ccc12` [Compound 2, N-methyl-5-(1-(1-methylpiperidin-4-yl)-1H-pyrazol-4-yl)-1H-pyrrolo[2,3-b]pyridin-4-amine], the IC50 is 891 nM on LRRK2 WT enzyme (setting [3]) and 825 nM on LRRK2(G2019S) (setting [4]).

With `CCNc1c(-c2cnn([C@H]3CCN(C(C)=O)C[C@@H]3F)c2)cnc2[nH]cc(Cl)c12` [Compound 78, 1-((3S,4S)-4-(4-(3-chloro-4-(ethylamino)-1H-pyrrolo[2,3-b]pyridin-5-yl)-1H-pyrazol-1-yl)-3-fluoropiperidin-1-yl)ethan-1-one], the IC50 on LRRK2 WT enzyme (setting [1]) and at LRRK2(G2019S) (setting [2]) was 10 to 100 nM in each case.

Take `COCCNc1c(-c2cnn([C@H]3CCN(C(C)=O)C[C@@H]3F)c2)cnc2[nH]cc(Cl)c12` [Compound 81, 1-((3S,4S)-4-(4-(3-chloro-4-((2-methoxyethyl)amino)-1H-pyrrolo[2,3-b]pyridin-5-yl)-1H-pyrazol-1-yl)-3-fluoropiperidin-1-yl)ethan-1-one]: the 50% inhibitory concentration (IC50) is 10 to 100 nM on LRRK2 WT enzyme (setting [1]) and > 100 nM at LRRK2(G2019S) (setting [2]).

For `CNc1c(-c2cnn(C(C)(C)C#N)c2)cnc2[nH]ccc12` [Compound 1, 2-methyl-2-(4-(4-(methylamino)-1H-pyrrolo[2,3-b]pyridin-5-yl)-1H-pyrazol-1-yl)propanenitrile], the half-inhibitory concentration (IC50) at LRRK2 WT enzyme (setting [3]) was found to be 544 nM; on LRRK2(G2019S) (setting [4]), 326 nM.

On to `CC(C)Nc1c(-c2ccc(C(=O)N3CCOCC3)cc2)cnc2[nH]ccc12` [Compound 48, (4-(4-(isopropylamino)-1H-pyrrolo[2,3-b]pyridin-5-yl)phenyl)(morpholino)methanone], for which the IC50 at LRRK2 WT enzyme (setting [1]) and on LRRK2(G2019S) (setting [2]) was 10 to 100 nM throughout.

For `CNc1c(-c2ccn(C)n2)cnc2[nH]cc(Cl)c12` [Compound 11, 3-chloro-N-methyl-5-(1-methyl-1H-pyrazol-3-yl)-1H-pyrrolo[2,3-b]pyridin-4-amine], the figures for the IC50 on LRRK2 WT enzyme (setting [3]) and at LRRK2(G2019S) (setting [4]) were 8.4 nM and 30.9 nM, respectively.

Turning to `CNc1c(-c2nn(C)c3ccc(OC)cc23)cnc2[nH]cc(Cl)c12` [Compound 15, 3-(3-chloro-4-(methylamino)-1H-pyrrolo[2,3-b]pyridin-5-yl)-5-methoxy-1-methyl-1H-indazole], the IC50 turned out to be 140 nM at LRRK2 WT enzyme (setting [3]) and 397 nM on LRRK2(G2019S) (setting [4]).

As for `CNc1c(-c2cnn(C3CCOCC3)c2)cnc2[nH]ccc12` [Compound 3, N-methyl-5-(1-(tetrahydro-2H-pyran-4-yl)-1H-pyrazol-4-yl)-1H-pyrrolo[2,3-b]pyridin-4-amine], the IC50 stood at 264 nM on LRRK2 WT enzyme (setting [3]) and 164 nM at LRRK2(G2019S) (setting [4]).

Consider `CNc1c(C(F)(F)F)cnc2[nH]cc(-c3cnn(C(C)(C)C#N)c3)c12` [Compound 7, 2-methyl-2-(4-(4-(methylamino)-5-(trifluoromethyl)-1H-pyrrolo[2,3-b]pyridin-3-yl)-1H-pyrazol-1-yl)propanenitrile], for which the values for the IC50 on LRRK2 WT enzyme (setting [3]) and at LRRK2(G2019S) (setting [4]) were 38 nM and 26 nM, respectively.

With `O=C(c1ccc(-c2cnc3[nH]cc(Cl)c3c2NC2CC2)cc1)N1CCC(N2CCOCC2)CC1` [Compound 99, (4-(3-chloro-4-(cyclopropylamino)-1H-pyrrolo[2,3-b]pyridin-5-yl)phenyl)(4-morpholinopiperidin-1-yl)methanone], the IC50 is 10 to 100 nM on LRRK2 WT enzyme (setting [1]) and > 100 nM on LRRK2(G2019S) (setting [2]).

`CNc1c(-c2ccc(C(=O)N3CCOCC3)cc2)cnc2[nH]cc(Cl)c12` [Compound 90, (4-(3-chloro-4-(methylamino)-1H-pyrrolo[2,3-b]pyridin-5-yl)phenyl)(morpholino)methanone]: the half-maximal inhibitory concentration (IC50) at LRRK2 WT enzyme (setting [1]) and at LRRK2(G2019S) (setting [2]) was < 10 nM in each case.

Take `CCc1cc(-c2cnc3[nH]cc(Cl)c3c2NC(C)C)nn1C` [Compound 10, 3-chloro-5-(5-ethyl-1-methyl-1H-pyrazol-3-yl)-N-isopropyl-1H-pyrrolo[2,3-b]pyridin-4-amine]: the IC50 at LRRK2 WT enzyme (setting [3]) came out at 259 nM; on LRRK2(G2019S) (setting [4]), 523 nM.

Regarding `CNc1c(-c2cnn([C@H]3CCN(C4COC4)C[C@@H]3F)c2)cnc2[nH]cc(Cl)c12` [Compound 70, 3-chloro-5-(1-((3S,4S)-3-fluoro-1-(oxetan-3-yl)piperidin-4-yl)-1H-pyrazol-4-yl)-N-methyl-1H-pyrrolo[2,3-b]pyridin-4-amine], the concentration for half-maximal inhibition (IC50) on LRRK2 WT enzyme (setting [1]) and on LRRK2(G2019S) (setting [2]) was 10 to 100 nM each time.

As to `CC(C)Nc1c(-c2ccn(C)n2)cnc2[nH]cc(Cl)c12` [Compound 12, 3-chloro-N-isopropyl-5-(1-methyl-1H-pyrazol-3-yl)-1H-pyrrolo[2,3-b]pyridin-4-amine], the 50% inhibitory concentration (IC50) at LRRK2 WT enzyme (setting [3]) was 136 nM; at LRRK2(G2019S) (setting [4]) it was 514 nM.

In the case of `CNc1c(-c2cnn(C(C)(C)C#N)c2)cnc2[nH]cc(Cl)c12` [Compound 4, 2-(4-(3-chloro-4-(methylamino)-1H-pyrrolo[2,3-b]pyridin-5-yl)-1H-pyrazol-1-yl)-2-methylpropanenitrile], the half-maximal inhibitory concentration (IC50) was 15 nM at LRRK2 WT enzyme (setting [3]) and 14 nM at LRRK2(G2019S) (setting [4]).

Take `CNc1c(-c2cnn(C3CCOCC3)c2)cnc2[nH]cc(Cl)c12` [Compound 6, 3-chloro-N-methyl-5-(1-(tetrahydro-2H-pyran-4-yl)-1H-pyrazol-4-yl)-1H-pyrrolo[2,3-b]pyridin-4-amine]: the figures for the IC50 on LRRK2 WT enzyme (setting [3]) and on LRRK2(G2019S) (setting [4]) were 10 nM and 15 nM, respectively.

For the compound `O=C(c1ccc(-c2cnc3[nH]cc(Cl)c3c2NC2CC2)cc1)N1CCOCC1` [Compound 93, (4-(3-chloro-4-(cyclopropylamino)-1H-pyrrolo[2,3-b]pyridin-5-yl)phenyl)(morpholino)methanone], the IC50 at LRRK2 WT enzyme (setting [1]) and at LRRK2(G2019S) (setting [2]) was 10 to 100 nM each time.

Take `CNc1c(C(F)(F)F)cnc2[nH]cc(-c3cnn(C4CCN(C)CC4)c3)c12` [Compound 8, N-methyl-3-(1-(1-methylpiperidin-4-yl)-1H-pyrazol-4-yl)-5-(trifluoromethyl)-1H-pyrrolo[2,3-b]pyridin-4-amine]: the half-inhibitory concentration (IC50) at LRRK2 WT enzyme (setting [3]) was 103 nM; at LRRK2(G2019S) (setting [4]), 61 nM.

With `CC(=O)N1CC[C@H](n2cc(-c3cnc4[nH]ccc4c3NC3CCCC3)cn2)[C@@H](F)C1` [Compound 38, 1-((3S,4S)-4-(4-(4-(cyclopentylamino)-1H-pyrrolo[2,3-b]pyridin-5-yl)-1H-pyrazol-1-yl)-3-fluoropiperidin-1-yl)ethan-1-one], the half-inhibitory concentration (IC50) at LRRK2 WT enzyme (setting [1]) and on LRRK2(G2019S) (setting [2]) was 10 to 100 nM in each case.
